Results as given in US4983632A, “Use of gamma-hydroxybutyric acid salts for preparing pharmaceutical compositions for use in the treatment of alcoholism, and the compositions obtained” (Laboratorio Farmaceutico C.T. S.r.l., priority 1988, dated 1991).
Counter-ions that a name gives are not always drawn.

Tests used:
[1] = system: craving for ethyl alcohol in alcoholics; assay: Clinical study, craving for ethyl alcohol in alcoholics (overall); format: in vivo, man; settings: overall clinical conclusion
Text: To the end of demostrating the efficacy of the pharmaceutical compositions according to the invention we have furthermore carried out some […] tests to evaluate the efficacy of GHB salts in obtaining and mantaining abstention from alcoholic drinks in man; we synthetically report herein below the methods followed and the results obtained in one of such studies.
(§1) Finally, to the end of proving that the craving for drinks containing ethyl alcohol ("craving" for short) can be modified by pharmacological treatment with the compositions according to the present invention, we have selected 40 alcohol-dependent individuals according to the Diagnostic and Statistic Manual, 3rd edition Revised (DMS-III R) classification.
(§2) […] a NaGHB treatment at the doses of 0.05 g/kg/day in two administrations was given for an average period of 4-6 weeks.
(§3) In order to obtain a further experimental confirmation of the results obtained in the open test, we have carried out a test in double-blind.
(§4) 80 individuals, alcohol dependent according to DSM III-R, were divided in two groups by simple randomization and treated with NaGHB or with a placebo at the doses of 0.05 g/kg/day divided in two administrations for a total of 60 days.

[2] = system: rat; assay: Chronic toxicity tests on the rat; format: in vivo
[3] = Acute toxicity for oral administration in the mouse; format: in vivo; settings: in vivo; for mortality: read-out: Mortality (M+F)
[4] = system: mouse; assay: as above; format: in vivo
[5] = system: craving for drinks containing ethyl alcohol; assay: Craving in alcohol-dependent individuals, double-blind test; format: in vivo, man
Text: (§5) To this end we have prepared a questionnaire entitled "Restrained Drinking and Alcohol Craving Scale" (RDAGS) and we have examined whether said questionnaire was capable of differentiating between alcoholics and non-alcoholics.
as §3, §4

[6] = system: alcohol-preferring rats; assay: Voluntary consumption of ethanol in alcohol-preferring rats, NaGHB (Table 2); format: in vivo, male Wistar rats; settings: for Ethanol consumption, treatment: three consecutive days
Procedure: The trial was carried out on male Wistar rats of initial weight 130-160 g. The alcohol-preferring rats were chosen from a heterogeneous rat population having an average age of 40 days. The animals were caged individually and kept in an environment at a temperature of 24° C., with light from 8.00 to 20.00 hous. The method used to select alcohol-preferring rats was to allow the animals to choose from two bottles, one containing water and the other containing an increasingly strong ethanol solution. The tapwater and the ethanol solution were administered from graduated bottles (Richter), their positon being changed irregularly to prevent the habit of drinking from the same bottle. Starting from a 3% ethanol solution, the concentration was increased by 1% every day to a maximum of 10%. This ethanol concentration was used for the whole trial period. The experiments were carried out only on rats by whom more than 60% of the liquid drunk had been 10% ethanol. The thus chosen rats imbibed a constant mean ethanol quantity of 3.2±0.4 g/rat/day. The weight of the animals during this period was 380±35 g, and therefore the consumption of absolute alcohol per rat per kg of body weight was 8±0.54 g.
Different randomly chosen groups of these animals were respectively treated with increasing doses of the sodium salt of gamma-hydroxy butyric acid (NaGHB) wheas the control group received the same volume of physiological solution (10 ml/kg). The quantity of ethanol and water imbibed was recorded before, during and after treatment at the same time each day, and the treatment was repeated for three consecutive days.
The results of this trial are given in Table 2 which compares ethanol consumption in g/kg before, during and after treatment with NaGHB at three different doses of 150, 300 and 450 mg/kg.

[7] = system: aldehyde dehydrogenase (ALDH); assay: ALDH activity in supernatant of rat liver homogenate; format: biochemical; settings: for ALDH activity: pyrazole 0.03M, propionaldehyde substrate, mean±M.S.E. of three experiments
Procedure: (§6) The ADH and ALDH activity were measured using the surnatant of rat liver homogenate. The ADH activity was measured by oxidising the ethanol to acetaldehyde in the presence of NAD in tubes containing NaGHB.
(§7) The formation of reduced nicotine-adenine dinucleotide (NADH) was determined by spectrometry measurement at 340 nm and the ALDH activity was determined in the same manner. In addition, pyrazole (0.03M) was added to the reaction mixture to inhibit ADH and propionaldehyde was added as substrate. Each value is the mean±M.S.E. of three experiments.

[8] = system: craving for drinks containing ethyl alcohol; assay: Craving in alcohol-dependent individuals, open test; format: in vivo, man
Text: as §5, §1, §2
For comparison, a group of 40 alcoholics was examined, using the same criteria as for the NaGHB treatment groups; to this group a psychological and/or socio-rehabilitation technique was applied, with no specific pharmacological support (polyvitamins only).

[9] = Acute toxicity for intraperitoneal administration in the mouse; format: in vivo; settings: in vivo, ip; for mortality: read-out: Mortality (M + F)
[10] = system: mouse; assay: as above; format: in vivo
[11] = molecular target: T1, alcohol dehydrogenase (ADH) (Rattus norvegicus, UniProt P06757); assay: ADH activity in supernatant of rat liver homogenate; format: biochemical; settings: for ADH activity: mean±M.S.E. of three experiments
T1 construct: measured using the surnatant of rat liver homogenate; from tissue; host or cells: rat liver homogenate supernatant
Procedure: as §6, §7

[12] = system: alcohol-preferring rats; assay: Inhibition of voluntary ethanol consumption by alcohol-preferring rats, PTT-01 (Table 1); format: in vivo, rat; settings: mean of 10 animals
Text: Each value represents the mean of 10 aminals.

[13] = system: aldehyde-dehydrogenase enzyme; settings: assumed competition with NAD on active sites; cited from earlier work
[14] = system: patients; settings: cited from earlier work
[15] = cited from earlier work
[16] = 0.05 g/kg/day in two administrations, 60 days, vs placebo

T1 sequence (P06757 whole entry): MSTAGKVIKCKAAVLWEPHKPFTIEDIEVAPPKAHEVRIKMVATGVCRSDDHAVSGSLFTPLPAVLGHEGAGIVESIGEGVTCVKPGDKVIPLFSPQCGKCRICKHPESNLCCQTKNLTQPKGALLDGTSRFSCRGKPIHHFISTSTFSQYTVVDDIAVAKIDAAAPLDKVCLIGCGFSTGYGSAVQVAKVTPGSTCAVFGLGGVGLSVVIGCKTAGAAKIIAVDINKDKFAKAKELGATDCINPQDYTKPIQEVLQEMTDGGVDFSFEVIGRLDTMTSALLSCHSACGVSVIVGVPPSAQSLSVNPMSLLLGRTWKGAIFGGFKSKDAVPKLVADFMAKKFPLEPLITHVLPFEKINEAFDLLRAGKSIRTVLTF

For `O=C(O)CCCO` [GHB, gamma-hydroxybutyric acid], the “suppression of craving for ethyl alcohol in alcoholics” value [1] was “surprising activity of GHB in suppressing the craving for ethyl alcohol in alcoholics”.
With `O=C(O)CCCO` [NaGHB, sodium salt of gamma-hydroxybutyric acid] the “toxic action at organ level” value [2] was “No toxic action at organ level was observed”, the mortality ([3]; 10000 mg/kg, 10 g/kg) was 0% and the mortality ([3]; 11000 mg/kg, 11 g/kg) was 33.3%. For the same molecule, the mortality ([3]; 13000 mg/kg, 13 g/kg) was 66.6%, the mortality ([3]; 15000 mg/kg, 15 g/kg) was 100% and the LD50 ([3]; Table 4, 95% CL 10.95-13.17) was 12000 mg/kg. For the same molecule, the LD50 [4] was 12014 mg/kg, the drop-out percentage [5, 16] was “lower, statistically significant, drop-out percentage” and the “improvement of the craving” value [5, 16] was “notable improvement of the craving”. For the same molecule, the “Craving decrease induced by NaGHB” value ([5]; 40 alcohol dependents in double blind test (Table 6)) was “Efficient”, the “Ethanol consumption, post-treatment” value ([6]; NaGHB 150 mg/kg) was 7.02 ± 0.44 g/kg and the “Ethanol consumption, pretreatment” value ([6]; NaGHB 150 mg/kg group) was 7.71 ± 0.51 g/kg. For the same molecule, the “Ethanol consumption, treatment” value ([6]; NaGHB 150 mg/kg) was 6.11 ± 0.21 g/kg, the “Ethanol consumption, post-treatment” value ([6]; NaGHB 300 mg/kg) was 5.88 ± 0.35 g/kg and the “Ethanol consumption, pretreatment” value ([6]; NaGHB 300 mg/kg group) was 7.48 ± 0.35 g/kg. The “Ethanol consumption, treatment” value ([6]; NaGHB 300 mg/kg) was 3.43 ± 0.23 g/kg, the “Ethanol consumption, post-treatment” value ([6]; NaGHB 450 mg/kg) was 5.10 ± 0.48 g/kg and the “Ethanol consumption, pretreatment” value ([6]; NaGHB 450 mg/kg group) was 7.82 ± 0.46 g/kg. For the same molecule, the “Ethanol consumption, treatment” value ([6]; NaGHB 450 mg/kg) was 2.12 ± 0.11 g/kg, the “consumption of ethyl alcohol relative to consumption before treatment” value ([6]; daily administration, 450 mg/kg) was “below 50%” and the total imbibed fluid ([6]; during treatment) was “no significant reduction in total imbibed fluid”. For the same molecule, the “Alcohol consumption and preference for alcohol after interrupting administration” value ([6]; five days after interruption) was “returned to their pre-treatment levels five days after interrupting the administration of the medicament”, the acetaldehyde metabolism [7] was “without in any way altering acetaldehyde metabolism” and the ALDH activity ([7]; 10^-3 molar) was 0.0132 ± 0.0009 D.O/min/mg prot. The ALDH activity ([7]; 10^-4 molar) was 0.0138 ± 0.0011 D.O/min/mg prot, the ALDH activity ([7]; 10^-5 molar) was 0.0135 ± 0.0010 D.O/min/mg prot and the “inhibition of aldehyde dehydrogenase (ALDH)” value ([7]; up to 10^-3 M) was “does not inhibit”. For the same molecule, the craving reduction ([8]; 0.05 g/kg/day in two administrations, 4-6 weeks) was “statistically highly significant craving reduction”, the “Craving decrease induced by NaGHB” value ([8]; 40 alcohol-dependents in open test (Table 6)) was “Efficient” and the mortality ([9]; 2500 mg/kg, 2.5 g/kg) was 0%. It also gave a mortality ([9]; 3000 mg/kg, 3 g/kg) of 33.3%, a mortality ([9]; 3500 mg/kg, 3.5 g/kg) of 66.7% and a mortality ([9]; 4000 mg/kg, 4 g/kg) of 100%. The LD50 ([9]; Table 5, 95% CL 2.92-3.521) was 3210 mg/kg, the LD50 [10] was 3210 mg/kg and the ADH activity ([11]; 10^-3 molar) was 0.0239 ± 0.0015 D.O/min/mg prot. The ADH activity ([11]; 10^-4 molar) was 0.0240 ± 0.0018 D.O/min/mg prot, the ADH activity ([11]; 10^-5 molar) was 0.0245 ± 0.0018 D.O/min/mg prot and the “inhibition of alcohol dehydrogenase (ADH)” value ([11]; up to 10^-3 M) was “does not inhibit”.
For `CCCCC(=O)NC1CCOC1=O` (stereo not drawn) [PTT-01, α-n-butyl carbonylamino-gamma-butyro lactone], the “Ethanol consumption, pretreatment” value ([12]; PTT-01 100 mg/kg group) was 7.21 ± 0.40 g/kg, the “Ethanol consumption, post-treatment” value ([12]; PTT-01 100 mg/kg) was 7.24 ± 0.44 g/kg and the “Ethanol consumption, treatment” value ([12]; PTT-01 100 mg/kg) was 7.03 ± 0.38 g/kg. The “Ethanol consumption, pretreatment” value ([12]; PTT-01 200 mg/kg group) was 7.70 ± 0.28 g/kg, the “Ethanol consumption, post-treatment” value ([12]; PTT-01 200 mg/kg) was 7.36 ± 0.51 g/kg and the “Ethanol consumption, treatment” value ([12]; PTT-01 200 mg/kg) was 7.51 ± 0.41 g/kg. The “Ethanol consumption, pretreatment” value ([12]; PTT-01 300 mg/kg group) was 7.08 ± 0.19 g/kg, the “Ethanol consumption, post-treatment” value ([12]; PTT-01 300 mg/kg) was 6.98 ± 0.15 g/kg and the “Ethanol consumption, treatment” value ([12]; PTT-01 300 mg/kg) was 7.00 ± 0.46 g/kg.
For `CCN(CC)C(=S)SSC(=S)N(CC)CC` [disulfiram], the acetaldehyde oxidation rate [13] is listed as “reducing the acetaldehyde oxidation rate”, the “toxicity when administered alone” value ([14]; alone, therapeutic doses) is listed as “not toxic, although not completely innocuous” and the side effects ([14]; disulfiram itself) is listed as “can cause acneform eruptions, allergic dermatitis, urticaria, tiredness, fatique, tremors, reduced sexual power, gastric disturbances and digestive disturbances”. For the same molecule, the “adverse reactions following disulfiram treatment” value ([14]; following treatment, discussed with ingestion of alcohol) was “cases of respiratory depression, cardiovascular collapse, cardiac arrhythmia, myocardium infarct, and sudden or unexpected death have occurred”, the “refusal of alcoholic drinks” value ([14]; patients treated) was “refuse alcoholic drinks” and the “acetaldehyde level in the blood, times greater than with alcohol alone” value ([15]; alcohol after disulfiram pretreatment vs same dose of alcohol only) was 5-10 times. For the same molecule, the acetaldehyde concentration ([15]; in the presence of disulfiram) was “acetaldehyde concentration increases”.
